# From patent US20150119251A1, “AGRICULTURAL PLANT-PROTECTING AGENTS CONTAINING DIPEPTIDE DERIVATIVE AS ACTIVE INGREDIENT” (REPUBLIC OF KOREA (RURAL DEVELOPMENT ADMINISTRATION), priority 2012, published 2015)
# Square brackets hold non-standard residues; d marks the D form. Peptide text beside a SMILES is read from it. * marks the point of attachment. Trt = c1ccc(C(c2ccccc2)(c2ccccc2)*)cc1; Boc = CC(C)(C)OC(=O)*; Bz = O=C(c1ccccc1)*; OBn = c1ccc(CO*)cc1; OAll = C=CCO*
# Legend:
# [1] = system: pepper phytophthora blight (Phytopthora capsici); assay: Suppression of pepper phytophthora blight on leaves; type: in vivo; conditions: for Lesion outbreak rate: pepper leaves; for Outbreak of the phytophthora blight on the leaves: drench-treated to the roots; for Effect on suppressing the outbreak of pepper phytophthora blight or bacterial rot as compared with the non-treated control group: directly sprayed to the leaves
# Protocol: (§1) The peppers were raised in the same method as Example 3, and then, the test compounds were dissolved in 20% methanol to make a stock solution, and a stock was diluted to the concentrations of 0.1, 1.0, and 10.0 ppm. The test solutions were sprayed on the leaves or drench-treated on the leaves. After 7 days, the pathogen of plant bacterial rot (Pectobacterium carotovorum SCC1) was cultured in a TSA medium for 27 hours, and then, wetted on an 8 mm diameter paper disc in the concentration of 10^8 cfu/mL. The paper disc was located in the center of the leaves that were cut roundly, and then, after about 7 days, the lesion area was measured. In the case of phytophthora, the potato agar medium cultured with the phytophthora (Phytophthora capsici) was cut in the internal diameter size of 5 mm with a cork borer, and then inoculated to the leaves. After 7 days, the lesion area was observed. In the case of a bacterial rot, when Compounds 6, 89, 93, and 95 were sprayed on the pepper leaves, the bacterial rot was not found in the concentration of 1 or 10 ppm as compared with the non-treated group. […] The Suppression of lesion formation on the leaves when these compounds were drench-treated to the roots can be explained as it was resulted from that systemic disease resistance was induced in the whole plant. These test results are illustrated in the photographs of FIGS. 5 to 9.
# pepper plant = assay: Overcoming cold weather-damage on pepper plant (2° C. for 1 day); type: in vivo; conditions: then room temperature 3 days
# Protocol: In order to confirm the immunity-activating effect of the compounds of the present invention, the plants were exposed at the temperature so that they could be artificially damaged from cold weather, and the growth and development were observed. After growing the plants for 6 weeks, the compounds were drenched or sprayed on the leaves and the plants were raised for 1 week. After the plants were exposed under a 2° C. growth room for 1 day, they were raised at room temperature for 3 days. The degrees of the growth and development of the plants were observed and the degrees of the damage from cold weather in the plant were determined. […] The test results are illustrated in the photographs of FIGS. 11 and 12.
# [2] = system: tobacco bacterial rot (Pectobacterium carotovorum); assay: Suppression of tobacco bacterial rot; type: in vivo, Pectobacterium carotovorum SCC1
# Protocol: A tobacco or cucumber was sown in a plastic pot with a diameter of 10 cm×13 cm, and then, 12 pots were added in a yellow box. After seeding, 100 μL was inoculated to the cotyledons of cucumber or tobacco, in which first leaf was started to come out. The test compounds were dissolved in 20% methanol to make a stock solution, and then, the stock solution was diluted to the concentrations of 1, 10, and 100 ppm.
# After 7 days, the pathogen of a plant bacterial rot (Pectobacterium carotovorum SCC1) was cultured in a TSA medium for 27 hours; and then, the cultured pathogen was sprayed in a concentration of 10^8 cfu/mL to the plant leaves, and cultured at 30° C. for 3 days. The plant anthracnose germ (Colletotrichum orbiculare) was cultured in a GBA (Green bean agar) medium to induce spores for about 2 to 3 weeks. The germ was sprayed in a concentration of 10^5 cell/mL and then cultured at 26° C. for 1 day. When fourth or fifth leaf came out, 200 μL of each of the test compounds was inoculated to third leaf. After 7 days, the pathogen of the plant bacterial rot was sprayed to the plant leaves in the concentration of 10^8 cfu/mL, and then cultured at 30° C. for 3 days.
# The investigation was performed with naked eyes, and the lesion relative areas were investigated until 0 to 100% according to the shortness degrees of the bacterial rot. The anthracnose was investigated by counting the number of lesions occurred on the leaves.
# cucumber leaves = assay: Plant growth promotion, width of cucumber leaf; type: in vivo; conditions: non-treated = 100.0 (92.1 mm), unit of the source corrected
# Protocol: The active ingredients (Compounds 5 to 8, 14, and 15) were drenched to the leaves of a plant (pepper, potato, tomato, tobacco, cucumber, and Chinese cabbage), and then, after 7 days, the plant lengths were measured. Since then, the plant disease pathogen was inoculated, and then, after 3 to 5 days, the sizes of the plant leaves were measured and compared with the control group to obtain the relative growth degrees.
# [3] = system: plant bacterial rot (Pectobacterium carotovorum SCC1); assay: Suppression of bacterial rot on pepper leaves (paper disc on cut leaves); type: in vivo; conditions: sprayed on the pepper leaves, 1 or 10 ppm
# Protocol: as §1
# [4] = drench-treated, 1.0 or 10.0 ppm
smiles,measurement,setting,value
COC(=O)C[C@H](NC(=O)OC(C)(C)C)C(=O)N[C@@H](Cc1ccccc1)C(=O)OC [Compound 90] (Boc-Asp(OMe)-Phe-OMe),Lesion outbreak rate,[1]; 0.1 ppm,24 area %
same,Lesion outbreak rate,[1]; 1.0 ppm,7.2 area %
same,Cold weather-damage,pepper plant; sprayed on the leaves,no damages observed
COC(=O)[C@H](C)NC(=O)[C@H](Cc1ccc(O)cc1)NC(=O)OC(C)(C)C [Compound 15],Lesion outbreak rate,"[2]; Table 6, tobacco, 1 ppm",75%
same,Lesion outbreak rate,"[2]; Table 6, tobacco, 10 ppm",63%
same,Lesion outbreak rate,"[2]; Table 6, tobacco, 100 ppm",50%
same,Width of cucumber leaf (relative value to the non-treated group),cucumber leaves; 1.0 ppm,98.9%
same,Width of cucumber leaf (relative value to the non-treated group),cucumber leaves; 10 ppm,113%
same,Width of cucumber leaf (relative value to the non-treated group),cucumber leaves; 100 ppm,112%
COC(=O)CNC(=O)[C@@H](NC(=O)OC(C)(C)C)C(C)C [Compound 5] (Boc-Val-Gly-OMe),Lesion outbreak rate,"[2]; Table 3, tobacco, 1 ppm",73%
same,Lesion outbreak rate,"[2]; Table 3, tobacco, 10 ppm",40%
same,Lesion outbreak rate,"[2]; Table 3, tobacco, 100 ppm",7.7%
same,Width of cucumber leaf (relative value to the non-treated group),cucumber leaves; 1.0 ppm,100%
same,Width of cucumber leaf (relative value to the non-treated group),cucumber leaves; 10 ppm,111%
same,Width of cucumber leaf (relative value to the non-treated group),cucumber leaves; 100 ppm,121%
COC(=O)[C@H](C)NC(=O)CNC(=O)OC(C)(C)C [Compound 14] (Boc-Gly-Ala-OMe),Lesion outbreak rate,"[2]; Table 6, tobacco, 1 ppm",50%
same,Lesion outbreak rate,"[2]; Table 6, tobacco, 10 ppm",78%
same,Lesion outbreak rate,"[2]; Table 6, tobacco, 100 ppm",35%
same,Width of cucumber leaf (relative value to the non-treated group),cucumber leaves; 1.0 ppm,104%
same,Width of cucumber leaf (relative value to the non-treated group),cucumber leaves; 10 ppm,103%
same,Width of cucumber leaf (relative value to the non-treated group),cucumber leaves; 100 ppm,113%
COC(=O)CNC(=O)[C@@H](N)CC(C)C [Compound 4] (H-Leu-Gly-OMe),Outbreak of the phytophthora blight on the leaves,[1],significantly decreased
same,Lesion outbreak rate,"[2]; Table 3, tobacco, 1 ppm",47%
same,Lesion outbreak rate,"[2]; Table 3, tobacco, 10 ppm",80%
same,Lesion outbreak rate,"[2]; Table 3, tobacco, 100 ppm",90%
COC(=O)CNC(=O)[C@@H](N)C(C)C [Compound 6] (H-Val-Gly-OMe),Bacterial rot on pepper leaves as compared with the non-treated group,[3],not found
same,Lesion outbreak rate,"[2]; Table 3, tobacco, 1 ppm",11%
same,Lesion outbreak rate,"[2]; Table 3, tobacco, 10 ppm",2.1%
same,Lesion outbreak rate,"[2]; Table 3, tobacco, 100 ppm",3.5%
same,Width of cucumber leaf (relative value to the non-treated group),cucumber leaves; 1.0 ppm,114%
same,Width of cucumber leaf (relative value to the non-treated group),cucumber leaves; 10 ppm,124%
same,Width of cucumber leaf (relative value to the non-treated group),cucumber leaves; 100 ppm,123%
COC(=O)C(CC(C)C)NC(=O)C(NC(=O)OC(C)(C)C)C(C)O (stereo not drawn) [Compound 7] (Boc-Thr-Leu-OMe; configuration not given here),Lesion outbreak rate,"[2]; Table 3, tobacco, 1 ppm",40%
same,Lesion outbreak rate,"[2]; Table 3, tobacco, 10 ppm",27%
same,Lesion outbreak rate,"[2]; Table 3, tobacco, 100 ppm",20%
same,Width of cucumber leaf (relative value to the non-treated group),cucumber leaves; 1.0 ppm,110%
same,Width of cucumber leaf (relative value to the non-treated group),cucumber leaves; 10 ppm,121%
same,Width of cucumber leaf (relative value to the non-treated group),cucumber leaves; 100 ppm,121%
COC(=O)[C@@H]1CCCN1C(=O)[C@@H](N)Cc1c[nH]c2ccccc12 [Compound 107] (H-Trp-Pro-OMe),Effect on suppressing the outbreak of pepper phytophthora blight or bacterial rot as compared with the non-treated control group,[1],excellent
same,Outbreak of the phytophthora blight on the leaves,[1],significantly decreased
same,"Lesion formation, pepper phytophthora test",[1]; [4],no the lesion formations
same,Lesion outbreak rate,[1]; 0.1 ppm,9.3 area %
same,Lesion outbreak rate,[1]; 1.0 ppm,3.5 area %
same,"Lesion formation, pepper phytophthora test","[1]; sprayed on the leaves, 1 or 0.1 ppm",no the lesion formations
COC(=O)C[C@H](N)C(=O)N[C@@H](Cc1ccccc1)C(=O)OC [Compound 91] (H-Asp(OMe)-Phe-OMe),Effect on suppressing the outbreak of pepper phytophthora blight or bacterial rot as compared with the non-treated control group,[1],excellent
same,Lesion outbreak rate,[1]; 0.1 ppm,14 area %
same,Lesion outbreak rate,[1]; 1.0 ppm,24 area %
same,Cold weather-damage,pepper plant; sprayed on the leaves,no damages observed
COC(=O)[C@@H]1CCCN1C(=O)[C@H](C)NC(=O)OC(C)(C)C [Compound 86] (Boc-Ala-Pro-OMe),Lesion outbreak rate,[1]; 0.1 ppm,58 area %
same,Lesion outbreak rate,[1]; 1.0 ppm,83 area %
C=CCOC(=O)C[C@H](N)C(=O)N[C@@H](Cc1ccccc1)C(=O)OC [Compound 93] (H-Asp(OAll)-Phe-OMe),Bacterial rot on pepper leaves as compared with the non-treated group,[3],not found
same,Effect on suppressing the outbreak of pepper phytophthora blight or bacterial rot as compared with the non-treated control group,[1],excellent
same,Lesion outbreak rate,[1]; 0.1 ppm,35 area %
same,Lesion outbreak rate,[1]; 1.0 ppm,23 area %
same,Cold weather-damage,pepper plant; sprayed on the leaves,no damages observed
COC(=O)[C@H](Cc1ccccc1)NC(=O)[C@H](CC(=O)O)NC(C)=O [Compound 102] (Ac-Asp-Phe-OMe),Lesion outbreak rate,[1]; 0.1 ppm,20 area %
same,Lesion outbreak rate,[1]; 1.0 ppm,15 area %
COC(=O)C[C@H](NC(C)=O)C(=O)N[C@@H](Cc1ccccc1)C(=O)OC [Compound 96] (Ac-Asp(OMe)-Phe-OMe),Lesion outbreak rate,[1]; 0.1 ppm,32 area %
same,Lesion outbreak rate,[1]; 1.0 ppm,23 area %
COC(=O)[C@@H]1CCCN1C(=O)[C@@H](CSC(c1ccccc1)(c1ccccc1)c1ccccc1)NC(=O)OC(C)(C)C [Compound 77] (Boc-[dC](Trt)-Pro-OMe),Lesion outbreak rate,[1]; 0.1 ppm,46 area %
same,Lesion outbreak rate,[1]; 1.0 ppm,36 area %
COC(=O)C[C@H](NC(=O)c1ccccc1)C(=O)N[C@@H](Cc1ccccc1)C(=O)OC [Compound 97] (Bz-Asp(OMe)-Phe-OMe),Lesion outbreak rate,[1]; 0.1 ppm,22 area %
same,Lesion outbreak rate,[1]; 1.0 ppm,25 area %
COC(=O)[C@H](Cc1ccccc1)NC(=O)[C@H](CC(=O)OCc1ccccc1)NC(=O)OC(C)(C)C [Compound 94] (Boc-Asp(OBn)-Phe-OMe),Outbreak of the phytophthora blight on the leaves,[1],significantly decreased
same,"Lesion formation, pepper phytophthora test",[1]; [4],no the lesion formations
same,Lesion outbreak rate,[1]; 0.1 ppm,12 area %
same,Lesion outbreak rate,[1]; 1.0 ppm,6.8 area %
COC(=O)[C@@H]1CCCN1C(=O)[C@H](Cc1c[nH]c2ccccc12)NC(=O)OC(C)(C)C [Compound 84] (Boc-Trp-Pro-OMe),Lesion outbreak rate,[1]; 0.1 ppm,35 area %
same,Lesion outbreak rate,[1]; 1.0 ppm,33 area %
COC(=O)C(CC(C)C)NC(=O)C(N)C(C)O (stereo not drawn) [Compound 8] (H-Thr-Leu-OMe; configuration not given here),Lesion outbreak rate,"[2]; Table 3, tobacco, 1 ppm",43%
same,Lesion outbreak rate,"[2]; Table 3, tobacco, 10 ppm",57%
same,Lesion outbreak rate,"[2]; Table 3, tobacco, 100 ppm",0%
same,Width of cucumber leaf (relative value to the non-treated group),cucumber leaves; 1.0 ppm,122%
same,Width of cucumber leaf (relative value to the non-treated group),cucumber leaves; 10 ppm,123%
same,Width of cucumber leaf (relative value to the non-treated group),cucumber leaves; 100 ppm,120%
COC(=O)[C@H](Cc1ccccc1)NC(=O)[C@@H](N)CC(=O)OCc1ccccc1 [Compound 95] (H-Asp(OBn)-Phe-OMe),Bacterial rot on pepper leaves as compared with the non-treated group,[3],not found
same,Outbreak of the phytophthora blight on the leaves,[1],significantly decreased
same,"Lesion formation, pepper phytophthora test",[1]; [4],no the lesion formations
same,Lesion outbreak rate,[1]; 0.1 ppm,9.2 area %
same,Lesion outbreak rate,[1]; 1.0 ppm,3.8 area %
same,Cold weather-damage,pepper plant; drench-treated,no cold weather-damages
same,Cold weather-damage,pepper plant; sprayed on the leaves,no damages observed
COC(=O)[C@H](Cc1ccccc1)NC(=O)[C@H](CC(=O)OCc1ccccc1)NC(C)=O [Compound 100] (Ac-Asp(OBn)-Phe-OMe),Lesion outbreak rate,[1]; 0.1 ppm,19 area %
same,Lesion outbreak rate,[1]; 1.0 ppm,21 area %
C=CCOC(=O)C[C@H](NC(=O)c1ccccc1)C(=O)N[C@@H](Cc1ccccc1)C(=O)OC [Compound 99] (Bz-Asp(OAll)-Phe-OMe),Lesion outbreak rate,[1]; 0.1 ppm,36 area %
same,Lesion outbreak rate,[1]; 1.0 ppm,18 area %
CCOC(=O)[C@H](Cc1ccccc1)NC(=O)[C@H](CC(C)C)NC(=O)OC(C)(C)C [Compound 83] (Boc-Leu-Phe-OEt),Lesion outbreak rate,[1]; 0.1 ppm,80 area %
same,Lesion outbreak rate,[1]; 1.0 ppm,57 area %
CCOC(=O)[C@H](C)NC(=O)CNC(=O)OC(C)(C)C [Compound 82] (Boc-Gly-Ala-OEt),Lesion outbreak rate,[1]; 0.1 ppm,74 area %
same,Lesion outbreak rate,[1]; 1.0 ppm,60 area %
